Patent US11191795B2, “Herbal compositions and methods for treating herpes” (priority 2019, dated 2021)

Test system: cold sores
Type: in vivo, human

`Nc1nc2c(ncn2COCCO)c(=O)[nH]1` [acyclovir] was tested, and the “response of cold sores to treatment” value (Example 3, person, history, oral and topical) was “unresponsiveness” and the side effects (human, in vivo, po) was “dizziness”.
